According to ChEMBL document CHEMBL3046640, “Synthesis and antimicrobial activity of bischalcone derivatives” (2013):
Values after ≈ are worked out from the molar mass of the structure shown. Active and inactive are the calls of the source. The calls are words filed in the database; no cut-off is given here.

Experiments:
Type in all cases: functional
Staphylococcus aureus [1] = experiment: Antibacterial activity against Staphylococcus aureus ATCC 25923 assessed as growth inhibition at 100 ug/mL after 24 hr by cup-plate method; conditions: ATCC 25923, 24 h, read-out: DIZ
Rhizopus arrhizus [2] = experiment: Antifungal activity against Rhizopus oryzae MTCC 262 assessed as growth inhibition at 100 ug/mL after 3 to 4 days by agar diffusion method; conditions: read-out: DIZ
Aspergillus niger [3] = experiment: Antifungal activity against Aspergillus niger ATCC 16404 assessed as growth inhibition at 100 ug/mL after 3 to 4 days by agar diffusion method; conditions: read-out: DIZ
Escherichia coli [4] = experiment: Antibacterial activity against Escherichia coli ATCC 25922 assessed as growth inhibition at 100 ug/mL after 24 hr by cup-plate method; conditions: ATCC 25922, 24 h, read-out: DIZ
Candida albicans [5] = experiment: Antifungal activity against Candida albicans ATCC 10231 assessed as growth inhibition at 100 ug/mL after 3 to 4 days by agar diffusion method; conditions: read-out: DIZ
Pseudomonas aeruginosa [6] = experiment: Antibacterial activity against Pseudomonas aeruginosa ATCC 27853 assessed as growth inhibition after 24 hr by broth dilution method
Pseudomonas aeruginosa [7] = experiment: Antibacterial activity against Pseudomonas aeruginosa ATCC 27853 assessed as growth inhibition at 100 ug/mL after 24 hr by cup-plate method; conditions: ATCC 27853, 24 h, read-out: DIZ
Aspergillus niger [8] = experiment: Antifungal activity against Aspergillus niger ATCC 16404 assessed as growth inhibition after 48 hr by broth dilution method
Candida albicans [9] = experiment: Antifungal activity against Candida albicans ATCC 10231 assessed as growth inhibition after 48 hr by broth dilution method
Staphylococcus aureus [10] = experiment: Antibacterial activity against Staphylococcus aureus ATCC 25923 assessed as growth inhibition after 24 hr by broth dilution method
Escherichia coli [11] = experiment: Antibacterial activity against Escherichia coli ATCC 25922 assessed as growth inhibition after 24 hr by broth dilution method
Rhizopus arrhizus [12] = experiment: Antifungal activity against Rhizopus oryzae MTCC 262 assessed as growth inhibition after 48 hr by broth dilution method

Row | SMILES | zone of inhibition at 100 µg/mL (Staphylococcus aureus [1]) [mm] | zone of inhibition at 100 µg/mL (Rhizopus arrhizus [2]) [mm] | zone of inhibition at 100 µg/mL (Aspergillus niger [3]) [mm] | zone of inhibition at 100 µg/mL (Escherichia coli [4]) [mm] | zone of inhibition at 100 µg/mL (Candida albicans [5]) [mm] | MIC (Pseudomonas aeruginosa [6]; ATCC 27853, 24 h) [µg/mL] | zone of inhibition at 100 µg/mL (Pseudomonas aeruginosa [7]) [mm] | MIC (Aspergillus niger [8]; ATCC 16404, 48 h) [µg/mL] | MIC (Candida albicans [9]; ATCC 10231, 48 h) [µg/mL] | MIC (Staphylococcus aureus [10]; ATCC 25923, 24 h) [µg/mL] | MIC (Escherichia coli [11]; ATCC 25922, 24 h) [µg/mL] | MIC (Rhizopus arrhizus [12]; MTCC 262, 48 h) [µg/mL] | MIC (Pseudomonas aeruginosa [6]) | MIC (Aspergillus niger [8]) | MIC (Escherichia coli [11]) | MIC (Rhizopus arrhizus [12]) | MIC (Candida albicans [9]) | MIC (Staphylococcus aureus [10])
1 | O=c1cc(-c2cccc(Cl)c2)oc2cc3oc(-c4cccc(Cl)c4)cc(=O)c3cc12 | 15 | 10 | 15 | 10 | 10 | 25 (≈ 57.4 µM) | 15 | 25 (≈ 57.4 µM) | 50 (≈ 115 µM) | 25 (≈ 57.4 µM) | 50 (≈ 115 µM) | 50 (≈ 115 µM) | – | – | – | – | – | –
2 | CC(=O)c1cc(C(C)=O)c(OC(=O)c2cccc([N+](=O)[O-])c2)cc1OC(=O)c1cccc([N+](=O)[O-])c1 | 5 | < 5 | < 5 | < 5 | 5 | – | < 5 | – | > 100 | > 100 | – | – | inactive | inactive | inactive | inactive | – | –
3 | COc1cccc(-c2cc(=O)c3cc4c(=O)cc(-c5cccc(OC)c5)oc4cc3o2)c1 | 10 | 15 | 15 | 5 | 15 | 50 (≈ 117 µM) | 10 | 25 (≈ 58.6 µM) | 25 (≈ 58.6 µM) | 50 (≈ 117 µM) | > 100 | 25 (≈ 58.6 µM) | – | – | – | – | – | –
4 | CC(=O)c1cc(C(C)=O)c(OC(=O)c2ccc(Cl)cc2)cc1OC(=O)c1ccc(Cl)cc1 | 5 | 5 | < 5 | 5 | 5 | – | < 5 | – | > 100 | > 100 | > 100 | > 100 | inactive | inactive | – | – | – | –
5 | O=c1cc(-c2ccc(Cl)cc2)oc2cc3oc(-c4ccc(Cl)cc4)cc(=O)c3cc12 | 15 | 15 | 10 | 15 | 15 | 25 (≈ 57.4 µM) | 15 | 50 (≈ 115 µM) | 12.5 (≈ 28.7 µM) | 12.5 (≈ 28.7 µM) | 25 (≈ 57.4 µM) | 25 (≈ 57.4 µM) | – | – | – | – | – | –
6 | CCN(CC)c1ccc(/C=C/C(=O)c2cc(C(=O)/C=C/c3ccc(N(CC)CC)cc3)c(OC)cc2OC)cc1 | < 5 | < 5 | 5 | < 5 | < 5 | > 100 | 5 | > 100 | – | – | – | – | – | – | inactive | inactive | inactive | inactive
7 | Cc1ccccc1/C=C/C(=O)c1cc(C(=O)/C=C/c2ccccc2C)c(O)cc1O | 5 | < 5 | < 5 | < 5 | 5 | > 100 | 5 | – | > 100 | > 100 | – | – | – | inactive | inactive | inactive | – | –
8 | CCN(CC)c1ccc(/C=C/C(=O)c2cc(C(=O)/C=C/c3ccc(N(CC)CC)cc3)c(O)cc2O)cc1 | 10 | 5 | 5 | 10 | 10 | > 100 | 5 | > 100 | 50 (≈ 97.5 µM) | 50 (≈ 97.5 µM) | 50 (≈ 97.5 µM) | > 100 | – | – | – | – | – | –
9 | CC(=O)c1cc(C(C)=O)c(OC(=O)c2cccc(Cl)c2)cc1OC(=O)c1cccc(Cl)c1 | 5 | < 5 | < 5 | < 5 | < 5 | – | < 5 | – | – | > 100 | – | – | inactive | inactive | inactive | inactive | inactive | –
10 | COc1ccc(/C=C/C(=O)c2cc(C(=O)/C=C/c3ccc(OC)c(OC)c3)c(OC)cc2OC)cc1OC | 5 | < 5 | 5 | 10 | 5 | – | < 5 | > 100 | > 100 | > 100 | 50 (≈ 96.4 µM) | – | inactive | – | – | inactive | – | –
11 | Cc1ccccc1-c1cc(=O)c2cc3c(=O)cc(-c4ccccc4C)oc3cc2o1 | 10 | 5 | 5 | 5 | 10 | 50 (≈ 127 µM) | 10 | > 100 | 50 (≈ 127 µM) | 50 (≈ 127 µM) | > 100 | > 100 | – | – | – | – | – | –
12 | COc1cccc(/C=C/C(=O)c2cc(C(=O)/C=C/c3cccc(OC)c3)c(OC)cc2OC)c1 | < 5 | < 5 | < 5 | 5 | 5 | – | < 5 | – | > 100 | – | > 100 | – | inactive | inactive | – | inactive | – | inactive
13 | O=c1cc(-c2ccco2)oc2cc3oc(-c4ccco4)cc(=O)c3cc12 | 15 | 5 | 10 | 15 | 15 | 12.5 (≈ 36.1 µM) | 15 | 50 (≈ 144 µM) | 12.5 (≈ 36.1 µM) | 25 (≈ 72.2 µM) | 25 (≈ 72.2 µM) | > 100 | – | – | – | – | – | –
14 | O=C(/C=C/c1cccc(Cl)c1)c1cc(C(=O)/C=C/c2cccc(Cl)c2)c(O)cc1O | 5 | 10 | 5 | < 5 | 10 | 50 (≈ 114 µM) | 10 | > 100 | 50 (≈ 114 µM) | > 100 | – | 50 (≈ 114 µM) | – | – | inactive | – | – | –
15 | O=C(/C=C/c1ccc(Cl)cc1)c1cc(C(=O)/C=C/c2ccc(Cl)cc2)c(O)cc1O | 10 | 10 | 10 | 10 | 10 | 25 (≈ 56.9 µM) | 15 | 50 (≈ 114 µM) | 50 (≈ 114 µM) | 50 (≈ 114 µM) | 50 (≈ 114 µM) | 50 (≈ 114 µM) | – | – | – | – | – | –
16 | COc1cc(OC)c(C(=O)/C=C/c2ccco2)cc1C(=O)/C=C/c1ccco1 | 10 | 5 | 10 | < 5 | 10 | – | < 5 | 50 (≈ 132 µM) | 50 (≈ 132 µM) | 50 (≈ 132 µM) | – | > 100 | inactive | – | inactive | – | – | –
17 | COc1ccccc1C(=O)Oc1cc(OC(=O)c2ccccc2OC)c(C(C)=O)cc1C(C)=O | < 5 | < 5 | 5 | < 5 | < 5 | > 100 | 5 | > 100 | – | – | – | – | – | – | inactive | inactive | inactive | inactive
18 | COc1cccc(/C=C/C(=O)c2cc(C(=O)/C=C/c3cccc(OC)c3)c(O)cc2O)c1 | 10 | 15 | 10 | 10 | 15 | 50 (≈ 116 µM) | 10 | 50 (≈ 116 µM) | 25 (≈ 58.1 µM) | 50 (≈ 116 µM) | 50 (≈ 116 µM) | 25 (≈ 58.1 µM) | – | – | – | – | – | –
19 | O=c1c(O)c(-c2ccc(O)c(O)c2)oc2cc(O)cc(O)c12 [QUERCETIN] | – | – | – | – | – | – | – | – | > 100 | > 100 | > 100 | – | – | – | – | – | – | –
20 | COC1=CC(=O)C[C@@H](C)[C@]12Oc1c(Cl)c(OC)cc(OC)c1C2=O [GRISEOFULVIN] | – | > 20 | > 20 | – | > 20 | – | – | 6.25 (≈ 17.7 µM) | 6.25 (≈ 17.7 µM) | – | – | 6.25 (≈ 17.7 µM) | – | – | – | – | – | –
21 | O=C(O)c1cn(C2CC2)c2cc(N3CCNCC3)c(F)cc2c1=O [CIPROFLOXACIN] | > 20 | – | – | > 20 | – | – | > 20 | – | – | – | – | – | – | – | – | – | – | –
